Measurements reported in patent publication EP2951180B1, “2,6,7,8 SUBSTITUTED PURINES AS HDM2 INHIBITORS” (Merck Sharp & Dohme Corp., priority 2013, dated 2014).

The molecules below were run against T1, HDM2 (Homo sapiens, UniProt Q00987) (assay: HDM2 FRET assay (inhibition of binding of FITC labeled p53-pocket peptide to HDM2)). Details: Table 22; read-out: FRET IC50.
T1 construct: Thioredoxin (N); made in house; host or cells: E. coli strain BL21(DE3)Rosetta
T1 sequence (Q00987 17-125): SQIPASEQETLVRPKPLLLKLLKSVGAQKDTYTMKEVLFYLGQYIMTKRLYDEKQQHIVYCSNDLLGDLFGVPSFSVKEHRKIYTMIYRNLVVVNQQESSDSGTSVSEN
Procedure, shortened: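 Compounds were tested in 10-point serial dilution against 0.5 nM recombinant HDM2 binding 3 nM fluorescein-labeled p53-pocket peptide. Detection used 0.25 nM terbium cryptate anti-6xHis antibody in PBS buffer containing 0.01% BSA and 0.01% Tween-20.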
Work on `C[C@@H](Nc1nc(-c2noc(=O)[nH]2)nc2nc(C(=O)c3ccccc3)n(C[C@H]3CC[C@H](C)CC3)c12)C1CCC1` [Example 22.21, 3-[6-{[(1R)-1-cyclobutylethyl]amino}-7-[(trans-4-methylcyclohexyl)methyl]-8-(phenylcarbonyl)-7H-purin-2-yl]-1,2,4-oxadiazol-5(4H)-one] yielded an IC50 of 1 nM. `C[C@@H](Nc1nc(-c2n[nH]c(=O)o2)nc2nc(C(=O)c3ccccc3)n(C[C@H]3CC[C@H](C)CC3)c12)C1CCC1` [Example 22.22, 5-[6-{[(1R)-1-cyclobutylethyl]amino}-7-[(trans-4-methylcyclohexyl)methyl]-8-(phenylcarbonyl)-7H-purin-2-yl]-1,3,4-oxadiazol-2(3H)-one] showed an IC50 of 3.93 nM. For `C[C@@H](Nc1nc(-c2noc(=O)[nH]2)nc2nc(C(O)c3ccccc3)n(C[C@H]3CC[C@H](C)CC3)c12)C1CCC1` (stereo partly drawn) [Example 22.29, 3-(6-{[(1R)-1-cyclobutylethyl]amino}-8-[hydroxy(phenyl)methyl]-7-[(trans-4-methylcyclohexyl)methyl] -7H-purin-2-yl)-1,2,4-oxadiazol-5(4H)-one], the IC50 was 1.66 nM. Work on `C[C@@H](Nc1nc(-c2noc(=O)[nH]2)nc2nc(C3(c4ccc(F)cc4)CC3)n(C[C@H]3CC[C@H](C)CC3)c12)C1CCC1` [Example 22.30, 3-(6-{[(1R)-1-cyclobutylethyl]amino}-8-[1-(4-fluorophenyl)cyclopropyl] -7-[(trans-4-methylcyclohexyl)methyl] -7H-purin-2-yl)-1,2,4-oxadiazol-5(4H)-one] yielded an IC50 of 10.1 nM. `C[C@@H](Nc1nc(-c2noc(=O)[nH]2)nc2nc(C(=O)C3CCOCC3)n(C[C@H]3CC[C@H](C)CC3)c12)C1CCC1` [Example 22.31, 3-[6-{[(1R)-1-cyclobutylethyl]amino}-7-[(trans-4-methylcyclohexyl)methyl] -8-(tetrahydro-2H-pyran-4-ylcarbonyl)-7H-purin-2-yl]-1,2,4-oxadiazol-5(4H)-one] gave an IC50 of 6.45 nM. `CC(=O)c1nc2nc(-c3noc(=O)[nH]3)nc(N[C@H](C)C3CCC3)c2n1C[C@H]1CC[C@H](C)CC1` [Example 22.32, 3-(8-acetyl-6-{[(1R)-1-cyclobutylethyl]amino}-7-[(trans-4-methylcyclohexyl)methyl] -7H-purin-2-yl)-1,2,4-oxadiazol-5(2H)-one] was tested, and the IC50 was 25.3 nM. With `C=C(c1nc2nc(-c3noc(=O)n3C)nc(N[C@H](C)C3CCC3)c2n1C[C@H]1CC[C@H](C)CC1)C(C)(C)C` [Example 22.33, 3-(6-{[(1R)-1-cyclobutylethyl]amino}-8-(2,2-dimethyl-1-methylidenepropyl)-7-[(trans-4-methylcyclohexyl)methyl] -7H-purin-2-yl)-4-methyl-1,2,4-oxadiazol-5(4H)-one] the IC50 was 291 nM. Molecule `C[C@@H](Nc1nc(-c2noc(=O)[nH]2)nc2nc(C(O)C3CCOCC3)n(C[C@H]3CC[C@H](C)CC3)c12)C1CCC1` (stereo partly drawn) [Example 22.34, 3-(6-{[(1R)-1-cyclobutylethyl]amino}-8-[hydroxy(tetrahydro-2H-pyran-4-yl)methyl]-7-[(trans-4-methylcyclohexyl)methyl] -7H-purin-2-yl)-1,2,4-oxadiazol-5(4H)-one] has an IC50 of 24.6 nM. For `C[C@@H](Nc1nc(-c2noc(=O)[nH]2)nc2nc(C(C)(O)c3ccncc3)n(C[C@H]3CC[C@H](C)CC3)c12)C1CCC1` (stereo partly drawn) [Example 22.36, 3-(6-{[(1R)-1-cyclobutylethyl]amino}-8-(1-hydroxy-1-pyridin-4-ylethyl)-7-[(trans-4-methylcyclohexyl)methyl] -7H-purin-2-yl)-1,2,4-oxadiazol-5(4H)-one], the IC50 was 13.6 nM. `C[C@@H](Nc1nc(-c2noc(=O)[nH]2)nc2nc(C(C)(O)C3CCOCC3)n(C[C@H]3CC[C@H](C)CC3)c12)C1CCC1` (stereo partly drawn) [Example 22.38, 3-(6-{[(1R)-1-cyclobutylethyl]amino}-8-[1-hydroxy-1-(tetrahydro-2H-pyran-4-yl)ethyl]-7-[(trans-4-methylcyclohexyl)methyl] -7H-purin-2-yl)-1,2,4-oxadiazol-5(4H)-one] was tested, and the IC50 was 4.76 nM. Work on `C[C@@H](Nc1nc(-c2noc(=O)[nH]2)nc2nc(C3(c4cccnc4)CC3)n(C[C@H]3CC[C@H](C)CC3)c12)C1CCC1` [Example 22.39, 3-[6-{[(1R)-1-cyclobutylethyl]amino}-7-[(trans-4-methylcyclohexyl)methyl] -8-(1-pyridin-3-ylcyclopropyl)-7H-purin-2-yl]-1,2,4-oxadiazol-5(2H)-one] yielded an IC50 of 13.9 nM. In the case of `C[C@@H](Nc1nc(-c2noc(=O)[nH]2)nc2nc(C(C)(O)c3cccnc3)n(C[C@H]3CC[C@H](C)CC3)c12)C1CCC1` (stereo partly drawn) [Example 22.40, 3-(6-{[(1R)-1-cyclobutylethyl]amino}-8-(1-hydroxy-1-pyridin-3-ylethyl)-7-[(trans-4-methylcyclohexyl)methyl] -7H-purin-2-yl)-1,2,4-oxadiazol-5(2H)-one], the IC50 is reported as 41.6 nM. `C[C@@H](Nc1nc(-c2noc(=O)[nH]2)nc2nc(C(O)C3CCCC3)n(C[C@H]3CC[C@H](C)CC3)c12)C1CCC1` (stereo partly drawn) [Example 22.41, 3-(6-{[(1R)-1-cyclobutylethyl]amino}-8-[cyclopentyl(hydroxy)methyl]-7-[(trans-4-methylcyclohexyl)methyl] -7H-purin-2-yl)-1,2,4-oxadiazol-5(2H)-one] was tested, and the IC50 was 1.21 nM. `C=C(c1nc2nc(-c3noc(=O)[nH]3)nc(N[C@H](C)C3CCC3)c2n1C[C@H]1CC[C@H](C)CC1)C1CCOCC1` [Example 22.42, 3-(6-{[(1R)-1-cyclobutylethyl]amino}-7-[(trans-4-methylcyclohexyl)methyl] -8-[1-(tetrahydro-2H-pyran-4-yl)ethenyl]-7H-purin-2-yl)-1,2,4-oxadiazol-5(4H)-one] showed an IC50 of 5.07 nM. `C[C@@H](Nc1nc(-c2noc(=O)[nH]2)nc2nc(C3(O)CCCCC3)n(C[C@H]3CC[C@H](C)CC3)c12)C1CCC1` [Example 22.43, 3-(6-{[(1R)-1-cyclobutylethyl]amino}-8-(1-hydroxycyclohexyl)-7-[(trans-4-methylcyclohexyl)methyl] -7H-purin-2-yl)-1,2,4-oxadiazol-5(4H)-one] showed an IC50 of 13.1 nM. Work on `C[C@@H](Nc1nc(-c2noc(=O)[nH]2)nc2nc(C(C)(C)O)n(C[C@H]3CC[C@H](C)CC3)c12)C1CCC1` [Example 22.44, 3-(6-{[(1R)-1-cyclobutylethyl]amino}-8-(1-hydroxy-1-methylethyl)-7-[(trans-4-methylcyclohexyl)methyl] -7H-purin-2-yl)-1,2,4-oxadiazol-5(4H)-one] yielded an IC50 of 20.5 nM. `CC(C)C(O)c1nc2nc(-c3noc(=O)[nH]3)nc(N[C@H](C)C3CCC3)c2n1C[C@H]1CC[C@H](C)CC1` (stereo partly drawn) [Example 22.45, 3-(6-{[(1R)-1-cyclobutylethyl]amino}-8-(1-hydroxy-2-methylpropyl)-7-[(trans-4-methylcyclohexyl)methyl] -7H-purin-2-yl)-1,2,4-oxadiazol-5(4H)-one] was tested, and the IC50 was 3.66 nM. With `C[C@@H](Nc1nc(-c2noc(=O)[nH]2)nc2nc(C3CCCCC3O)n(C[C@H]3CC[C@H](C)CC3)c12)C1CCC1` (stereo partly drawn) [Example 22.46, 3-(6-{[(1R)-1-cyclobutylethyl]amino}-8-(2-hydroxycyclohexyl)-7-[(trans-4-methylcyclohexyl)methyl] -7H-purin-2-yl)-1,2,4-oxadiazol-5(4H)-one] the IC50 was 445 nM. Molecule `C[C@@H](Nc1nc(-c2noc(=O)[nH]2)nc2nc(C(O)C3CCCC3)n(C[C@H]3CC[C@H](C)CC3)c12)C1CCC1` (stereo partly drawn) [Example 22.47, 3-(6-{[(1R)-1-cyclobutylethyl]amino}-8-[cyclopentyl(hydroxy)methyl]-7-[(trans-4-methylcyclohexyl)methyl] -7H-purin-2-yl)-1,2,4-oxadiazol-5(4H)-one] has an IC50 of 5.04 nM. `CC(C)C(O)c1nc2nc(-c3noc(=O)[nH]3)nc(N[C@H](C)C3CCC3)c2n1C[C@H]1CC[C@H](C)CC1` (stereo partly drawn) [Example 22.48, 3-(6-{[(1R)-1-cyclobutylethyl]amino}-8-(1-hydroxy-2-methylpropyl)-7-[(trans-4-methylcyclohexyl)methyl] -7H-purin-2-yl)-1,2,4-oxadiazol-5(4H)-one] gave an IC50 of 30.2 nM. `C[C@@H](Nc1nc(-c2noc(=O)[nH]2)nc2nc(C3(c4cccc(F)c4)CC3)n(C[C@H]3CC[C@H](C)CC3)c12)C1CCC1` [Example 22.49, 3-(6-{[(1R)-1-cyclobutylethyl]amino}-8-[1-(3-fluorophenyl)cyclopropyl] -7-[(trans-4-methylcyclohexyl)methyl] -7H-purin-2-yl)-1,2,4-oxadiazol-5(4H)-one] was tested, and the IC50 was 16.9 nM. `C[C@@H](Nc1nc(-c2noc(=O)[nH]2)nc2nc(C(C)(O)c3cscn3)n(C[C@H]3CC[C@H](C)CC3)c12)C1CCC1` (stereo partly drawn) [Example 22.50, 3-(6-{[(1R)-1-cyclobutylethyl]amino}-8-[1-hydroxy-1-(1,3-thiazol-4-yl)ethyl]-7-[(trans-4-methylcyclohexyl)methyl] -7H-purin-2-yl)-1,2,4-oxadiazol-5(4H)-one] gave an IC50 of 10.3 nM. `C[C@@H](Nc1nc(-c2noc(=O)[nH]2)nc2nc(C(C)(O)c3cccnc3)n(C[C@H]3CC[C@H](C)CC3)c12)C1CCC1` (stereo partly drawn) [Example 22.51, 3-(6-{[(1R)-1-cyclobutylethyl]amino}-8-(1-hydroxy-1-pyridin-3-ylethyl)-7-[(trans-4-methylcyclohexyl)methyl] -7H-purin-2-yl)-1,2,4-oxadiazol-5(2H)-one] showed an IC50 of 21.2 nM. Work on `C[C@@H](Nc1nc(-c2noc(=O)[nH]2)nc2nc(C(C)(O)c3cscn3)n(C[C@H]3CC[C@H](C)CC3)c12)C1CCC1` (stereo partly drawn) [Example 22.52, 3-(6-{[(1R)-1-cyclobutylethyl]amino}-8-[1-hydroxy-1-(1,3-thiazol-4-yl)ethyl]-7-[(trans-4-methylcyclohexyl)methyl] -7H-purin-2-yl)-1,2,4-oxadiazol-5(4H)-one] yielded an IC50 of 1.85 nM. In the case of `C[C@@H](Nc1nc(-c2noc(=O)[nH]2)nc2nc(C3(c4ccncc4)CC3)n(C[C@H]3CC[C@H](C)CC3)c12)C1CCC1` [Example 22.53, 3-[6-{[(1R)-1-cyclobutylethyl]amino}-7-[(trans-4-methylcyclohexyl)methyl] -8-(1-pyridin-4-ylcyclopropyl)-7H-purin-2-yl]-1,2,4-oxadiazol-5(4H)-one], the IC50 is reported as 4.6 nM.
